Results published in patent US20200129450A1, “COMPOSITION COMPRISING OSMUNDACETONE OR PHARMACEUTICALLY ACCEPTABLE SALT THEREOF FOR PREVENTING OR TREATING BONE DISEASE” (KORPHARM CO., LTD., priority 2016, published 2020).

Tests used:
[1] = test system: NIH3T3 mouse embryo fibroblasts; experiment: MTT assay cytotoxicity; type: cell-based; details: NIH3T3, 24 hours, read-out: IC50 according to MTT assay
Method: (§1) HaCaT human epidermal keratinocytes, # ATCC PCS-200-011) were incubated using Dulbecco's modified Eagle's medium (DMEM, # DMEM-HPA, Capricorn Scientific, Ebsdorfergrund, Germany) in the conditions of 37° C. and 5% CO2. NIH3T3 mouse embryo fibroblasts (# KCLB 21658), RAW264.7 murine macrophages (preosteoclast cell line, # KCLB 40071), HCT116 human colon cancer cells (# KCLB 10247), PC3 human prostate adenocarcinoma cells (# KCLB 21435), HT1080 human fibrosarcoma cells (# KCLB 1121), and B16F10 mouse malignant melanoma cells (# KCLB 80008) were purchased from the Korean Cell Line Bank, and incubated using DMEM in the conditions of 37° C. and 5% C02.
(§2) The compound isolated from Osmunda japonica, prepared in section 1 of <Example 1>, was investigated for cytotoxicity using MTT assay.
(§3) MTT assay was as follows.
(§4) Cells were incubated at 1×10^3 cells/well in a 96-well plate containing DMEM with 10% fetal bovine serum (FBS) at 5% CO2 and 37° C., and then osmundacetone was added to the cell medium, followed by incubation for 24 hours. Thereafter, 100 μL of MTT (0.5 mg/ml PBS) was administered, followed by incubation for 2 hours. […] After incubation for 10 minutes, the absorbance was measured using a microplate reader (SPCTRA MAX 340PC, Molecular Devices, USA) at 570 nm. The absorbance is an indicator showing the number of living cells, and calculated by the following equation. […]

B16F10 mouse melanoma = experiment: MTT assay cytotoxicity; type: cell-based; details: B16F10, 24 hours
Method: as §1, §2, §3, §4

OCN in MC3T3-E1 cells = experiment: Western blot, OCN production by osteoblasts; type: cell-based, mouse; details: 50 μM
Method: In order to analyze the expression of osteoblast differentiation markers during a differentiation procedure, 3×10^5 MC3T3-E1 cells were dispensed in a 100 mm culture plate together with 10 mL of complete α-MEM containing ascorbic acid (50 μg/mL) and 10 mM R-glycerophosphate per well. Here, 50 μM osmundacetone was added or not added, and the cells were incubated at 37 […] in a 5% CO2 incubator for 21 days while the medium was exchanged every 3-4 days.
The negative control cells were cultured without differentiation factors, and the osteoblasts and a culture thereof were dispensed, and then collected on day 7, 14, or 21.
The cells were lysed using RIPA buffer, and then the expression of runt-related transcription factor 2 (RUNX2) was analyzed. Also for analysis of OCN secretion, the culture was collected, and normalized by cellular DNA.
Proteins were analyzed using SDS-PAGE on 12.5% […] gels, and transferred on polyvinylidene difluoride (PVDF) membrane through electrophoresis.
The membrane was blocked using non-fat milk, and examined using anti-RUNX2 (D1H7) rabbit monoclonal antibody (#8486, Cell Signaling Technology, MA, USA) or anti-OCN (FL-95) antibody (# sc-30045, Santa Cruz Biotechnology, TX, USA). Anti-actin antibody (# M177-3, MEDICAL & BIOLOGICAL LABORATORIES CO., LTD., Nagoya, Aichi, Japan) was used as an internal reference. […]

mature osteoclasts = experiment: Bone resorption assay (OsteoLyse Assay Kit) with mature osteoclasts; type: cell-based, mouse; details: 8 μM (IC50 concentration), mature osteoclasts treated for 3 days, normalized by cellular DNA
Method: The quantitative measurement of in vitro osteoclast-mediated degradation of human bone collagen was carried out using the OsteoLyse™ Assay Kit (Lonza Walkersville, Inc. Walkersville, Md., USA) according to manufacturer's instructions.
This assay allows a direct measurement of the release of […] into the osteoclast resorption lacuna (Delaisse et al., 2003).
Briefly, 2×10^4 mouse bone marrow cells prepared above were dispensed in 96-well OsteoLyse™ cell culture plate coated with europium-conjugated collagen.
The cells were incubated in 0.1 mL of complete α-MEM per well in the presence of M-CSF (60 ng/mL) and RANKL (150 ng/mL) in the conditions of 37° C. and 5% CO2 for 6 days. Thereafter, the medium was exchanged on day 3 of the dispensing.
In order to measure the ability to inhibit the mature osteoclastic functions, the medium was exchanged on day 6, and osmundacetone was added at an IC50 concentration obtained from TRAP analysis.
After the mature osteoclasts were treated with osmundacetone for 3 days, 10 μL of a supernatant of the cell culture was taken, and placed in a second 96-well analysis plate containing fluorophore-Releasing reagent. The degraded collagen was measured using a time-resolved fluorescence fluorimeter, Wallac Victor (Perkin Elmer, Waltham, Mass., USA). […]

**Q.** How did the IC50 [1] turn out when CC(=O)/C=C/c1ccc(O)c(O)c1 [Osmundacetone, (3E)-4-(3,4-dihydroxyphenyl)-3-buten-2-one] was run?
**A.** > 5 mM

**Q.** And the “LD50 (MTT assay)” value (B16F10 mouse melanoma)?
**A.** 75.8 ± 9.2 µM

**Q.** What about the “OCN production by osteoblasts, increase compared with non-treated positive control cells” value (OCN in MC3T3-E1 cells; day 14) of the same molecule?
**A.** 2.9 times

**Q.** What about the “OCN production by osteoblasts, increase compared with non-treated positive control cells” value (OCN in MC3T3-E1 cells; day 21) of the same molecule?
**A.** 1.2 times

**Q.** And the “bone resorption function of mature osteoclasts, % that of non-treated osteoclasts” value (mature osteoclasts)?
**A.** 58.7±13%
